Experimental data taken from EP0326329B1, “Quinazoline derivatives useful as insecticides” (Dow AgroSciences LLC, priority 1988, dated 1989).
Like-named read-outs stand apart in the source and are kept apart here.

Legend:
Assay type in all cases: in vivo
[1] = tested on: Erysiphe graminis tritici (powdery mildew); test: Greenhouse Test 1, foliar spray fungicide screen (POWD MDEW), host wheat; conditions: disease control rating, 400 ppm (+++ at 100 ppm)
[2] = tested on: Pyricularia oryzae (rice blast); conditions: disease control rating, foliar spray, host rice; 400 ppm (+++ at 100 ppm)
[3] = tested on: Puccinia recondita tritici (leaf rust); test: Greenhouse Test 1, foliar spray fungicide screen (LEAF RUST), host wheat; conditions: disease control rating, 400 ppm (+++ at 100 ppm)
[4] = tested on: Botrytis cinerea (gray mold); test: Greenhouse Test 1, foliar spray fungicide screen (GRAY MOLD), host grape berries; conditions: disease control rating, 400 ppm (+++ at 100 ppm)
[5] = tested on: Pseudoperonospora cubensis (downy mildew); test: Greenhouse Test 1, foliar spray fungicide screen (DOWN MDEW), host squash; conditions: disease control rating, 400 ppm (+++ at 100 ppm)
[6] = tested on: Southern corn rootworm (Diabrotica undecimpuctata howardi Barber); test: Mite/insect screen, soil treatment (CRW); conditions: Diabrotica, percent mortality, soil treatment, read-out: CRW RESULTS %
Outline: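 Compounds dissolved in acetone/alcohol (50:50) with Toximul R/S emulsifiers, diluted with water. Soil (15 g, with presoaked corn seed) treated with 1 mL test solution, dried 6–12 h, then five 2–3 instar larvae added; held at 23°C. Percent mortality and phytotoxicity scored after standard exposure periods.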

[7] = tested on: southern armyworm (Spodopetra eridania Cramer); test: Mite/insect screen, sprayed squash leaves (SAW); conditions: Spodoptera eridania, percent mortality, read-out: SAW RESULTS %
Outline: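 For the armyworm test, two uninfested sprayed leaves were excised, once dry for an hour, and placed in a Petri dish holding larvae. Spray solutions came from an emulsifier-containing 50:50 acetone/alcohol formulation diluted with water and were applied to runoff.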

[8] = tested on: Twospotted spider mites (Tetranychus urticae Koch); test: Mite/insect screen, sprayed squash cotyledons (SM); conditions: Tetranychus urticae, percent mortality, read-out: SM RESULTS %
Outline: (§1)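 Mortality and phytotoxicity read after standard exposure periods on sprayed squash: cotyledons for melon aphids and twospotted spider mites, excised leaves placed with southern armyworm larvae. Spray solutions were water dilutions of acetone/alcohol stocks containing TOXIMUL R and S emulsifiers, applied to runoff at 10 psi and air-dried one hour.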

[9] = tested on: melon aphids (Aphis gossypii Glover); test: Mite/insect screen, sprayed squash cotyledons (MA); conditions: Aphis gossypii, percent mortality, read-out: MA RESULTS %
Outline: as §1

`CC(COc1ncnc2c(F)cccc12)c1ccc(-c2ccccc2)cc1` (stereo not drawn) [Example 199, 8-fluoro-4-[2-(1,1'-biphenyl)4-ylpropoxy]quinazoline] was tested, and the “POWD MDEW” value [1] was “+++ (+++ = 90-100% control at 100 ppm)”, the “RICE BLAST” value [2] was “+ (+ = 20-89% control at 400 ppm)” and the “LEAF RUST” value [3] was “+++ (+++ = 90-100% control at 100 ppm)”. The “GRAY MOLD” value [4] was “- (- = 0-19% control at 400 ppm)”, the “DOWN MDEW” value [5] was “+ (+ = 20-89% control at 400 ppm)” and the mortality at 12 ppm ([6]; corn rootworm, CRW RATE 12.00 PPM) was 0%. It also gave a mortality at 24 ppm ([6]; corn rootworm, CRW RATE 24.00 PPM) of 0%, a mortality at 200 ppm ([7]; Southern armyworm, sprayed squash leaves, RATE 200 PPM) of 0% and a mortality at 400 ppm ([7]; Southern armyworm, sprayed squash leaves, RATE 400 PPM) of 60%. It also gave a mortality at 200 ppm ([8]; twospotted spider mites, sprayed squash cotyledons, RATE 200 PPM) of 100%, a mortality at 400 ppm ([8]; twospotted spider mites, sprayed squash cotyledons, RATE 400 PPM) of 0% and a mortality at 200 ppm ([9]; melon aphids, sprayed squash cotyledons, RATE 200 PPM) of 100%. For the same molecule, the mortality at 400 ppm ([9]; melon aphids, sprayed squash cotyledons, RATE 400 PPM) was 0%.
In the case of `CC(C)c1ccc(CCCOc2ncnc3c(F)cccc23)cc1` [Example 152, 8-fluoro-4-[3-[4-(1-methylethyl)phenyl]propoxy]quinazoline], the “POWD MDEW” value [1] is reported as “+++ (+++ = 90-100% control at 100 ppm)”, the “RICE BLAST” value [2] is reported as “+ (+ = 20-89% control at 400 ppm)” and the “LEAF RUST” value [3] is reported as “+ (+ = 20-89% control at 400 ppm)”. The “GRAY MOLD” value [4] was “- (- = 0-19% control at 400 ppm)”, the “DOWN MDEW” value [5] was “+ (+ = 20-89% control at 400 ppm)” and the mortality at 12 ppm ([6]; CRW rate 12.00 ppm) was 0%. For the same molecule, the mortality at 24 ppm ([6]; CRW rate 24.00 ppm) was 0%, the mortality at 200 ppm ([7]; spray rate 200 ppm) was 0% and the mortality at 400 ppm ([7]; spray rate 400 ppm) was 0%. The mortality at 200 ppm ([8]; spray rate 200 ppm) was 90%, the mortality at 400 ppm ([8]; spray rate 400 ppm) was 60% and the mortality at 200 ppm ([9]; spray rate 200 ppm) was 40%. It also gave a mortality at 400 ppm ([9]; spray rate 400 ppm) of 80%.
For `CC(C)Cc1ccc(C(C)COc2ncnc3ccccc23)cc1` (stereo not drawn) [Example 167, 4-[2-[4-(2-methylpropyl)phenyl]propoxy]quinazoline], the “POWD MDEW” value [1] was “+ (+ = 20-89% control at 400 ppm)”, the “RICE BLAST” value [2] was “+++ (+++ = 90-100% control at 100 ppm)” and the “LEAF RUST” value [3] was “+ (+ = 20-89% control at 400 ppm)”. The “GRAY MOLD” value [4] was “- (- = 0-19% control at 400 ppm)”, the “DOWN MDEW” value [5] was “- (- = 0-19% control at 400 ppm)” and the mortality at 12 ppm ([6]; CRW rate 12.00 ppm) was 0%. It also gave a mortality at 24 ppm ([6]; CRW rate 24.00 ppm) of 0%, a mortality at 200 ppm ([7]; spray rate 200 ppm) of 0% and a mortality at 400 ppm ([7]; spray rate 400 ppm) of 0%. It also gave a mortality at 200 ppm ([8]; spray rate 200 ppm) of 90%, a mortality at 400 ppm ([8]; spray rate 400 ppm) of 80% and a mortality at 200 ppm ([9]; spray rate 200 ppm) of 90%. For the same molecule, the mortality at 400 ppm ([9]; spray rate 400 ppm) was 80%.
In the case of `FC(F)(F)c1cccc(C(F)(F)F)c1CCOc1ncnc2ccccc12` [Example 145, 4-[2-[2,6-bis(trifluoromethyl)phenyl]ethoxy]quinazoline], the “POWD MDEW” value [1] is reported as “+ (+ = 20-89% control at 400 ppm)”, the “RICE BLAST” value [2] is reported as “+++ (+++ = 90-100% control at 100 ppm)” and the “LEAF RUST” value [3] is reported as “+ (+ = 20-89% control at 400 ppm)”. The “GRAY MOLD” value [4] was “- (- = 0-19% control at 400 ppm)”, the “DOWN MDEW” value [5] was “++ (++ = 90-100% control at 400 ppm)” and the mortality at 12 ppm ([6]; CRW rate 12.00 ppm) was 0%. It also gave a mortality at 24 ppm ([6]; CRW rate 24.00 ppm) of 0%, a mortality at 200 ppm ([7]; spray rate 200 ppm) of 0% and a mortality at 400 ppm ([7]; spray rate 400 ppm) of 0%. For the same molecule, the mortality at 200 ppm ([8]; spray rate 200 ppm) was 80%, the mortality at 400 ppm ([8]; spray rate 400 ppm) was 0% and the mortality at 200 ppm ([9]; spray rate 200 ppm) was 80%. For the same molecule, the mortality at 400 ppm ([9]; spray rate 400 ppm) was 80%.
For `CCC(COc1ncnc2c(F)cccc12)c1ccc(-c2ccccc2)cc1` (stereo not drawn) [Example 197, 8-fluoro-4-[2-(1,1'-biphenyl)-4-ylbutoxy)quinazoline], the “POWD MDEW” value [1] was “+ (+ = 20-89% control at 400 ppm)”, the “RICE BLAST” value [2] was “+ (+ = 20-89% control at 400 ppm)” and the “LEAF RUST” value [3] was “- (- = 0-19% control at 400 ppm)”. For the same molecule, the “GRAY MOLD” value [4] was “- (- = 0-19% control at 400 ppm)”, the “DOWN MDEW” value [5] was “- (- = 0-19% control at 400 ppm)” and the mortality at 12 ppm ([6]; CRW rate 12.00 ppm) was 0%. The mortality at 24 ppm ([6]; CRW rate 24.00 ppm) was 0%, the mortality at 200 ppm ([7]; spray rate 200 ppm) was 0% and the mortality at 400 ppm ([7]; spray rate 400 ppm) was 0%. It also gave a mortality at 200 ppm ([8]; spray rate 200 ppm) of 80%, a mortality at 400 ppm ([8]; spray rate 400 ppm) of 0% and a mortality at 200 ppm ([9]; spray rate 200 ppm) of 80%. For the same molecule, the mortality at 400 ppm ([9]; spray rate 400 ppm) was 0%.
With `CCOc1ccc(CCCOc2ncnc3c(F)cccc23)cc1` [Example 125, 8-fluoro-4-[3-[4-ethoxyphenyl]propoxy]quinazoline] the “POWD MDEW” value [1] was “+ (+ = 20-89% control at 400 ppm)”, the “RICE BLAST” value [2] was “+ (+ = 20-89% control at 400 ppm)” and the “LEAF RUST” value [3] was “+ (+ = 20-89% control at 400 ppm)”. For the same molecule, the “GRAY MOLD” value [4] was “- (- = 0-19% control at 400 ppm)”, the “DOWN MDEW” value [5] was “+ (+ = 20-89% control at 400 ppm)” and the mortality at 12 ppm ([6]; CRW rate 12.00 ppm) was 0%. For the same molecule, the mortality at 24 ppm ([6]; CRW rate 24.00 ppm) was 0%, the mortality at 200 ppm ([7]; spray rate 200 ppm) was 0% and the mortality at 400 ppm ([7]; spray rate 400 ppm) was 0%. The mortality at 200 ppm ([8]; spray rate 200 ppm) was 0%, the mortality at 400 ppm ([8]; spray rate 400 ppm) was 0% and the mortality at 200 ppm ([9]; spray rate 200 ppm) was 0%. The mortality at 400 ppm ([9]; spray rate 400 ppm) was 0%.
